Test results from patent publication EP4496786B1, “CRYSTALLINE FORM OF 2-ACRYLAMIDO-2-METHYLPROPANESULPHONIC ACID POTASSIUM SALT” (SNF Group, priority 2023, dated 2024).

Assays:
Format in all cases: physicochemical
[1] = Minimum ignition energy (MIE), standard NF EN 13821, vertical Hartmann tube; conditions: dispersed solid mass 0,5 g
Text: The minimum ignition energy represents the minimum energy that must be supplied to a product (chemical compound) to cause it to ignite. The energy may be electrical or thermal. The minimum ignition energy is an essential piece of information when considering the risk of explosion during product handling (transfer, storage, reaction, shaping, etc.). In the case of solids, this energy is the minimum energy of an electric spark likely to ignite a cloud of dust. The higher the value of the minimum ignition energy, the less risk the solid presents when used, handled or stored. The minimum ignition energy is measured in accordance with standard NF EN 13821. The explosimeter is a vertical Hartmann tube. The dust dispersion system is of the mushroom type. Total induction is less than 25 microhenry. Discharge voltage is between 5 kV and 15 kV. The electrodes are made of brass and spaced apart by a minimum distance of 6 mm.

[2] = Particle-size distribution by laser diffraction (Cilas 1190)
Procedure: ATBS AH and crystals of ATBS.K AK2a are analysed by laser diffraction to determine their particle-size distribution.
The laser diffraction equipment used is a Cilas 1190.

[3] = Storage stability of ATBS / ATBS.K stored in solid form: homopolymer by steric exclusion chromatography; conditions: newly prepared solution
Procedure: In parallel, the stability of the different ATBS (acid AH or potassium salt AK2a) in solid form was also assessed over the same period of time.
In this case, every three months, 500 g of a solution of ATBS.K was freshly prepared according to the preparation process described in example 10a or 11 using the stored ATBS products of AH, AK2a and CE-AK2c to 2e.
Stability of the solid products was also assessed by monitoring the amount of homopolymers of ATBS.K present after that time.
The solutions were analysed by liquid-phase steric exclusion chromatography using an Agilent 1260 chromatograph equipped with Aquagel-OH 20, 30, 40 and 50 columns allowing analysis of anionic polymers up to 600,000 g/mol PEG equivalent.
The solutions of ATBS.K were diluted to 2000 ppm (by weight in water) before being injected. The UV signal at 250 nm at the column outlet was integrated for the polymer peaks and are detailed in tables 4 and 5 below. The larger the signal area, the more polymer is present, and therefore the lower the stability of the product over time. Table 4: Stability of ATBS and ATBS potassium salt stored in solutions

SMILES | 90% of the particles are smaller than [2] | d50 value [2] | UV signal at 250 nm integrated for the polymer peaks ([3]; T0) [mV.s] | UV signal at 250 nm integrated for the polymer peaks ([3]; T0 + 6 months) [mV.s] | UV signal at 250 nm integrated for the polymer peaks ([3]; T0 + 9 months) [mV.s] | UV signal at 250 nm integrated for the polymer peaks ([3]; T0 + 12 months) [mV.s] | UV signal at 250 nm integrated for the polymer peaks ([3]; T0 + 3 months, potassium salt) [mV.s] | further results
C=CC(=O)NC(C)(C)CS(=O)(=O)O [ATBS AH, 2-acrylamido-2-methylpropanesulphonic acid] | 100 µm | approximately 40 µm | 0 | 7702 | 10503 | 256300 | – | Flame ([1]; Energy 300 mJ): Average; Pressure ([1]; Energy 300 mJ): Average; Flame ([1]; Energy 500 mJ): Average; Pressure ([1]; Energy 500 mJ): Average; Flame ([1]; Energy 1000 mJ): Small; Pressure ([1]; Energy 1000 mJ): Low; UV signal at 250 nm integrated for the polymer peaks ([3]; T0 + 3 months): 250 mV.s
C=CC(=O)NC(C)(C)CS(=O)(=O)[O-].[K+] [ATBS.K AK2a, 2-acrylamido-2-methylpropanesulphonic acid potassium salt] | approximately 1500 µm | approximately 600 µm | 0 | 6532 | 9532 | 25631 | 200 | Flame ([1]; High energy): Small; Pressure ([1]; High energy): Low; particles smaller than 325 µm [2]: less than 10%
C=CC(=O)NC(C)(C)CS(=O)(=O)[O-].[K+] [ATBS.K CE-AK2c, 2-acrylamido-2-methylpropanesulphonic acid potassium salt] | – | – | 0 | – | – | – | 261 | –
C=CC(=O)NC(C)(C)CS(=O)(=O)[O-].[K+] [ATBS.K CE-AK2d, 2-acrylamido-2-methylpropanesulphonic acid potassium salt] | – | – | 0 | – | – | – | 254 | –
C=CC(=O)NC(C)(C)CS(=O)(=O)[O-].[K+] [ATBS.K CE-AK2e, 2-acrylamido-2-methylpropanesulphonic acid potassium salt] | – | – | 0 | – | – | – | 251 | –
